Measurements as given in PubChem BioAssay (NCI).
“And” between values parts separate entries of the source, which are not always exact repeats. Equal entries are not always repeated.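 These data come from cells grown in 96-well plates and exposed to compound for 48 hours at five concentrations. The concentration for 50% growth inhibition is given as GI50. TGI marks complete inhibition of growth.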

Legend:
Experiment in all cases: NCI anticancer screen, dose series, 48 h
NCI-H23 lung = system: NCI-H23 lung
HCT-15 colon = system: HCT-15 colon
UACC-257 melanoma = system: UACC-257 melanoma
SK-MEL-28 melanoma = system: SK-MEL-28 melanoma
SF-295 CNS = system: SF-295 CNS
RPMI-8226 leukemia = system: RPMI-8226 leukemia
CAKI-1 renal = system: CAKI-1 renal
MALME-3M melanoma = system: MALME-3M melanoma
NCI-H460 lung = system: NCI-H460 lung
UACC-62 melanoma = system: UACC-62 melanoma
A549 NSCLC = system: A549 NSCLC
MCF7 breast = system: MCF7 breast
SK-OV-3 ovarian = system: SK-OV-3 ovarian
NCI-H522 lung = system: NCI-H522 lung
KM12 colon = system: KM12 colon
COLO 205 colon = system: COLO 205 colon

Row | SMILES | TGI (NCI-H23 lung) [µM] | TGI (HCT-15 colon) [µM] | TGI (UACC-257 melanoma) [µM] | TGI (SK-MEL-28 melanoma) | TGI (SF-295 CNS) [µM] | TGI (RPMI-8226 leukemia) | TGI (CAKI-1 renal) [µM] | TGI (MALME-3M melanoma) [µM] | TGI (NCI-H460 lung) [µM] | TGI (UACC-62 melanoma) [µM] | TGI (A549 NSCLC) [µM] | TGI (MCF7 breast) [µM] | TGI (SK-OV-3 ovarian) [µM] | TGI (NCI-H522 lung) [µM] | TGI (KM12 colon) [µM] | TGI (COLO 205 colon) [µM] | GI50 (HCT-15 colon) [µM] | GI50 (SF-295 CNS) [µM] | GI50 (SK-OV-3 ovarian) [µM]
1 | CC1=NN(C(=O)c2ccc(C)cc2)C(=O)C1N=Nc1ccccc1C(=O)O (stereo not given) | > 100 | > 100 | > 100 | > 100 µM | > 100 | > 100 µM | > 100 | > 100 | > 100 | > 100 | > 100 | > 100 | > 100 | > 100 | > 100 | > 100 |  |  | 
2 | CC1CCN(c2cc(-c3cc4ccccc4o3)oc(=O)c2C#N)CC1 | > 100 | > 100 | > 100 | > 100 µM | > 100 | > 100 µM | > 100 | > 100 | > 100 |  | > 100 |  |  |  | > 100 | > 100 |  |  | 
3 | O=C(/C=C\c1ccc(/C=C/C(=O)Nc2cccc(C3=NCCCN3)c2)cc1)Nc1cccc(C2=NCCCN2)c1 | > 100 | > 100 | > 100 | > 100 µM | > 100 | 76.3 µM |  | > 100 | > 100 |  | > 100 | > 100 | > 100 | > 100 | > 100 | > 100 |  |  | 
4 | CO/C(=N\N=C(/c1ccccc1)C(F)(F)F)c1ccncc1 | > 100 | > 100 |  | > 100 µM | > 100 | > 100 µM | > 100 | > 100 | > 100 | > 100 |  | > 100 | > 100 | > 100 | > 100 | > 100 |  |  | 
5 | c1csc(C(NC2=NCCO2)C2CC2)c1 (stereo not given) | > 100 | > 100 |  |  | > 100 | > 100 µM | > 100 |  | > 100 | > 100 | > 100 | > 100 | > 100 | > 100 |  | > 100 |  |  | 
6 | Clc1ccc(-c2nnc(-c3nsc4ccccc34)o2)cc1 | 74.1 | > 100 | > 100 | > 100 µM |  | > 100 µM |  |  | > 100 | > 100 | > 100 |  |  |  | > 100 | > 100 |  |  | 
7 | Clc1cccc(C2SCc3nc4ccccc4n32)c1 (stereo not given) | 51.4 | 44 |  | 46.2 µM | > 100 | > 100 µM | > 100 | 62.1 | > 100 | 36.5 | > 100 |  | 52.7 | 29.5 | 50.5 | 15.1 |  |  | 
8 | Fc1ccc(C(OCCN2CC3CC2CN3)c2ccc(F)cc2)cc1 (stereo not given) | > 100 | > 100 | 36.6 | 52.3 µM | > 100 | 71.1 µM | > 100 | 32.3 | > 100 | 37.3 |  | > 100 | > 100 | > 100 | > 100 | 33.5 |  |  | 
9 | CC(=O)Nc1cc(/C=C\C(=O)N2CC(CCl)c3c2cc(N)c2ccccc32)n(C)n1 (stereo not given) | 0.0273 | > 100 | 0.0394 | 0.0382 µM and 0.177 µM |  | 0.0577 µM and 0.0242 µM | 0.0223 |  |  | 0.0284 |  | > 100 |  |  |  | 0.0901 | 0.0167 | 0.0426 | 0.0311
10 | N/C(=N\N=C/c1cc([N+](=O)[O-])cc([N+](=O)[O-])c1O)NO | > 100 | > 100 | > 100 | > 100 µM | > 100 | > 100 µM | > 100 | > 100 | > 100 | > 31.1 | > 100 | > 100 | > 100 | > 100 | > 100 | > 31.6 |  |  | 
